Measured values from patent publication US7425562B2, “Inhibitors of cruzipain and other cysteine proteases” (Amura Therapeutics Ltd., priority 2001, dated 2008).

Assays:
Format in all cases: biochemical
Bovine Cathepsin S = molecular target: T1, Bovine Cathepsin S (Bos taurus, UniProt P25326); experiment: Cathepsin peptidase activity assay, bovine cathepsin S (Ki); conditions: boc-Val-Leu-Lys-AMC, pH 6.5, 25±1° C
T1 construct: purchased CN Biosciences
Method: (§1) Assay protocols were based on literature precedent (Tablel; Barrett, A. J., Rawlings, N. D. and Woessner, J. F., 1998, Handbook of Proteolytic Enzymes, Academic Press, London and references therein) and modified as required to suit local assay protocols. Enzyme was added as required to initiate the reaction and the activity, as judged by the change in fluorescence upon conversion of substrate to product, was monitored over time. All assays were carried out at 25±1° C.
(§2) Bovine cathepsin S, human cathepsin L, human cathepsin H and human cathepsin B were obtained from CN Biosciences. Recombinant human cathepsin S, human cathepsin K and human cathepsin X were obtained from Dr. Boris Turk (Josef Stefan Institute, Ljubljana, Slovenia). Unless otherwise stated, all peptidase activity assays were carried out in 10 mM bis-tris-propane (BTP), pH 6.5 containing 1 mM EDTA, 5 mM 2-mercaptoethanol and 1 mM CaCl2. Human cathepsin H activity assays were carried out in 10 mM BTP pH 6.5, 142 mM […], 1 mM CaCl2, 1 mM EDTA, 1 mM DTT, 0.035 mM Zwittergent 3-16. Human cathepsin K assays were carried out in 100 mM sodium acetate; pH 5.5 containing 20 mM L-cysteine and 1 mM EDTA (Bossard, M. J., et. al., J. Biol. Chem., 21, 12517-12524, 1996). Human cathepsin X assays were carried out in 100 mM sodium acetate; pH 5.5 containing 20 mM L-cysteine; 0.05% (w/v) Brij 35 and 1 mM EDTA (Santamaria, I., et. al., J. Biol. Chem., 273, 16816-16823, 1998; Klemencic, J, et al., Eur. J. Biochem., 267, 5404-5412, 2000). […] The rate of conversion of substrate to product was derived from the slope of the increase in fluorescence monitored continuously over time.
(§3) The apparent inhibition constant (Ki) for each compound was determined on the basis that inhibition was reversible and occurred by a pure-competitive mechanism. The Ki values were calculated, from the dependence of enzyme activity as a function of inhibitor concentration, by direct regression analysis (Prism v 3.02) using Equation 2 (Cornish-Bowden, A., 1995.).
(§4) In situations where the apparent dissociation constant (Ki^app) approached the enzyme concentrations, the Ki^app values were calculated using a quadratic solution in the form described by Equation 3 (Morrison, J. F. Trends Biochem. Sci., 7, 102-105, 1982; Morrison, J. F. Biochim. Biophys. Acta, 185, 269-286, 1969; Stone, S. R. and Hofsteenge, J. Biochemistry, 25, 4622-4628, 1986).

Human Cathepsin K = molecular target: T2, Human Cathepsin K (Homo sapiens, UniProt P43235); experiment: Cathepsin peptidase activity assay, human cathepsin K (Ki); conditions: pH 5.5, 25±1° C
T2 construct: Dr. Boris Turk (Josef Stefan Institute, Ljubljana, Slovenia)
T2 sequence (P43235 115-329): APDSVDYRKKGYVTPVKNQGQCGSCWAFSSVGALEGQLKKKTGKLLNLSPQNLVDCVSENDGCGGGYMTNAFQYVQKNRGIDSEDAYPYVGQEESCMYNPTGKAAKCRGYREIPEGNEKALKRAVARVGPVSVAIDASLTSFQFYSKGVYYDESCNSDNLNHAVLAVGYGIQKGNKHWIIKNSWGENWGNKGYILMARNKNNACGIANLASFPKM
Method: as §1, §2, §3, §4

Human Cathepsin L = molecular target: T3, Human Cathepsin L (Homo sapiens, UniProt P07711); experiment: Cathepsin peptidase activity assay, human cathepsin L (Ki); conditions: Ac-Phe-Arg-AMC, pH 6.5, 25±1° C
T3 construct: purchased CN Biosciences
T3 sequence (P07711 114-333): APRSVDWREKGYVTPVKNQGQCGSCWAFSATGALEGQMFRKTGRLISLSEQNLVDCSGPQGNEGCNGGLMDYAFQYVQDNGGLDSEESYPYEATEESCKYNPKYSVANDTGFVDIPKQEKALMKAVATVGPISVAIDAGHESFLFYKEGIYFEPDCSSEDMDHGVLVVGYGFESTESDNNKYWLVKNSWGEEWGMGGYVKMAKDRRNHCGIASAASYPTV
Method: as §1, §2, §3, §4

Cruzipain = molecular target: T4, Cruzipain (Trypanosoma cruzi, UniProt P25779); experiment: Trypanosoma cruzi cruzipain peptidase activity assay (Ki); conditions: wild-type cruzipain from Trypanosoma cruzi Dm28 epimastigotes, pH 6.75, 25±1° C
T4 construct: Wild-type cruzipain, derived from Trypanosoma cruzi Dm28 epimastigotes; tissue Dr. Julio Scharfstein (Instituto de Biofisica Carlos Chagas Filho); host or cells: Trypanosoma cruzi Dm28 epimastigotes
T4 sequence (P25779 123-467): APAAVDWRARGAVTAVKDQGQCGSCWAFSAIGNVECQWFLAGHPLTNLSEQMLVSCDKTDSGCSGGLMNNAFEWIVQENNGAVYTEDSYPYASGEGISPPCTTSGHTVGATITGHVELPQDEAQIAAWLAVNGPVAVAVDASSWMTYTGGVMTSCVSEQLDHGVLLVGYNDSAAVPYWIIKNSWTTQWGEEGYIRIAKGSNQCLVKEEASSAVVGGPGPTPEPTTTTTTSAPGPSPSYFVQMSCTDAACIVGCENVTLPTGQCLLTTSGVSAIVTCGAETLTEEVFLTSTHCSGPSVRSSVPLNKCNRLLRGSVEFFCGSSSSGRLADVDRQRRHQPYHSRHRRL
Method: as §1
Wild-type cruzipain, derived from Trypanosoma cruzi Dm28 epimastigotes, was obtained from Dr. Julio Scharfstein (Instituto de Biofisica Carlos Chagas Filho, Universidade Federal do R^10 de Janeiro, R^10 de Janeiro, Brazil). Activity assays were carried out in 100 mM sodium phosphate, pH 6.75 containing 1 mM EDTA and 10 mM Loysteine using 2.5 nM enzyme. Ac-Phe-Arg-AMC (KM^app≈12 μM) and D-Val-Leu-Lys-AMC (KM^app≈4 μM) were used as the substrates. Routinely, Ac-FR-AMC was used at a concentration equivalent to KM^app and D-Val-Leu-Lys-AMC was used at a concentration of 25 μM. The rate of conversion of substrate to product was derived from the slope of the increase in fluorescence monitored continuously over time.
as §3, §4

T1 sequence (P25326 115-331): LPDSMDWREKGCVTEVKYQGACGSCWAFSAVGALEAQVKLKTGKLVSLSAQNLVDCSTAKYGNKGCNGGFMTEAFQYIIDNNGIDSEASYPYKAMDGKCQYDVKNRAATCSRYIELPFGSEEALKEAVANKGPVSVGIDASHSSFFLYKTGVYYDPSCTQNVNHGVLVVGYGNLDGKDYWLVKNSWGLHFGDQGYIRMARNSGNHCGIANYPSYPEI

| Ki (Bovine Cathepsin S) [µM] | Ki (Human Cathepsin K) [µM] | Ki (Human Cathepsin L) [µM] | Ki (Cruzipain) [µM] | Structure (SMILES) |
| --- | --- | --- | --- | --- |
| 0.3 | > 10 | > 100 | > 25 | O=C(N[C@@H](CSCc1ccccc1)C(=O)N1CC[C@H]2OCC(=O)[C@H]21)c1ccoc1 [Example 48, (3aS, 6aR) Furan-3-carboxylic Acid [1R-benzylsulfanylmethyl-2-oxo-2-(3-oxo-hexahydrofuro[3,2-b]pyrrol-4-yl)ethyl]amide] |
| > 10 | > 100 | 0.8 | > 5 | O=C(N[C@@H](Cc1ccc(O)cc1)C(=O)N1CC[C@H]2OCC(=O)[C@H]21)c1cccc2ccccc12 [Example 69, (3aS, 6aR) Naphthalene-1-carboxylic Acid [1S-(4-hydroxybenzyl)-2-oxo-2-(3-oxo-hexahydrofuro[3,2-b]pyrrol-4-yl)ethyl]amide] |
| > 10 | 0.1 | > 25 | > 5 | CC(C)C[C@H](NC(=O)c1ccc(Oc2ccccc2)cc1)C(=O)N1CC[C@H]2OCC(=O)[C@H]21 [Example 10, (3aS, 6aR) N-[3-methyl-1S-(3-oxo-hexahydrofuro[3,2-b]pyrrole-4-carbonyl)butyl]-4-phenoxybenzamide] |
| > 100 | > 5 | > 35 | 0.2 | CC(C)(C)c1ccc(C(=O)N[C@@H](Cc2ccc(O)cc2)C(=O)N2CC[C@H]3OCC(=O)[C@H]32)cc1 [Example 3, (3aS, 6aR) 4-tert-Butyl-N-[1S-(4-hydroxybenzyl)-2-oxo-2-(3-oxo-hexahydrofuro[3,2-b]pyrrol-4-yl)ethyl]benzamide] |
